# Measured values: US20220324835A1 (Nurix Therapeutics, Inc., priority 2018, published 2022)
# pIC50: −log10 of the molar value.
# Tests used:
# [1] = target: T1, Cbl-b (Homo sapiens, UniProt Q13191); assay: Cbl-b inhibition assay (Cbl-b activity assay, FRET, Biological Example 1; 100 mM NaCl, 60 nM Src kinase); format: biochemical; conditions: upper bound stated in text lists; read-out: IC50 values in the Cbl-b inhibition assay of Biological Example 1
# How it was run: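 Steps: Src kinase phosphorylates N-terminal biotinylated Avi-tagged Cbl-b; phosphorylated Cbl-b binds Bodipy-fluorescein ubiquitin-loaded UbcH5B; streptavidin-terbium on Cbl-b sits close to the fluorescein label, producing FRET. Inhibitors block UbcH5B-Ub binding.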
# [2] = tested on: T-cell; assay: IL-2 secretion from T-cells co-stimulated with anti-CD3 and anti-CD28 antibody (Biological Example 2); format: cell-based, human; conditions: Homo sapiens, T-cell, read-out: IL-2 secretion Anti-CD3/Anti-CD28 stimulation; for fold induction at 0.3 µM: 0.3 μM Cbl-b inhibitor; for fold induction at 1 µM: 1 μM Cbl-b inhibitor; for fold induction at 4 µM: 4 μM Cbl-b inhibitor
# How it was run: (§1)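 No assay protocol given; T-cells stimulated with anti-CD3 alone or anti-CD3 plus anti-CD28, with or without Cbl-b inhibitor. Activation read as IL-2 secretion or CD25 surface staining, expressed as fold over baseline from uninhibited cells […].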
# [3] = tested on: T-cell; assay: IL-2 secretion from T-cells stimulated with anti-CD3 antibody alone (Biological Example 2); format: cell-based, human; conditions: T-cell, read-out: IL-2 secretion Anti-CD3 stimulation; for fold induction at 1 µM: 1 μM Cbl-b inhibitor; for fold induction at 8 µM: 8 μM Cbl-b inhibitor
# [4] = tested on: T-cell; assay: CD25 cell surface staining on T-cells co-stimulated with anti-CD3 and anti-CD28 antibody (Biological Example 2); format: cell-based, human; conditions: Homo sapiens, T-cell, read-out: CD25 staining Anti-CD3/Anti-CD28 stimulation; for fold induction at 0.3 µM: 0.3 μM Cbl-b inhibitor; for fold induction at 1 µM: 1 μM Cbl-b inhibitor; for fold induction at 4 µM: 4 μM Cbl-b inhibitor
# How it was run: as §1
# [5] = tested on: T-cell; assay: CD25 cell surface staining on T-cells stimulated with anti-CD3 antibody alone (Biological Example 2); format: cell-based, human; conditions: T-cell, read-out: CD25 staining Anti-CD3 stimulation; for fold induction at 1 µM: 1 μM Cbl-b inhibitor; for fold induction at 8 µM: 8 μM Cbl-b inhibitor
# [6] = target: T1, Cbl-b; assay: Cbl-b activity assay (Cbl-b inhibition assay), TR-FRET of Cbl-b interaction with UbcH5B-Ub; format: biochemical; conditions: assay buffer with 100 mM NaCl, 60 nM Src kinase; read-out: Cbl-b activity IC50
# How it was run: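 TR-FRET readout of Cbl-b binding to Bodipy-fluorescein N-terminally labeled Ub conjugated to UbcH5B C85K, measured with compound present. After compound incubation, 60 nM Src kinase with 1 mM ATP and 5 mM MgCl2 (final) was added for 1.5 h, then a further 1 h incubation; asterisked values used 50 mM NaCl buffer and 30 nM Src.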
# [7] = fold change over baseline (anti-CD3/anti-CD28 stimulated T-cells without inhibitor)
# [8] = Homo sapiens, fold change over baseline (anti-CD3/anti-CD28 stimulated T-cells without inhibitor)
# [9] = fold change over baseline, primary human total T-cells
# T1 sequence (Q13191 36-427): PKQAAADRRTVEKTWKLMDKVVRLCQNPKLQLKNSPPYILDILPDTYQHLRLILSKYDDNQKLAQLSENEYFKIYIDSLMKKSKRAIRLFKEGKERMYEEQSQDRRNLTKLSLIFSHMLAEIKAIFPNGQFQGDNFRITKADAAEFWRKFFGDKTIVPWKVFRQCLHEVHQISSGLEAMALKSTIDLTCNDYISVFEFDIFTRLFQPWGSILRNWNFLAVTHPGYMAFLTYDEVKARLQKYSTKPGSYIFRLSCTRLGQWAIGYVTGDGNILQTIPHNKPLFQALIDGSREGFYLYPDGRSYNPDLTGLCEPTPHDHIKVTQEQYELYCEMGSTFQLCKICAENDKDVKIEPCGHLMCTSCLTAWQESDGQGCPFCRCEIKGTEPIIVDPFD
Compound,pIC50 [1],"fold induction at 0.3 µM [2, 7]","fold induction at 1 µM [2, 7]","fold induction at 1 µM [3, 8]","fold induction at 0.3 µM [4, 7]","fold induction at 1 µM [4, 7]","fold induction at 1 µM [5, 8]",pIC50 [6],"fold induction at 0.3 µM [2, 9]","fold induction at 1 µM [2, 9]","fold induction at 4 µM [2, 9]","fold induction at 1 µM [3, 9]","fold induction at 8 µM [3, 9]","fold induction at 0.3 µM [4, 9]","fold induction at 1 µM [4, 9]","fold induction at 4 µM [4, 9]","fold induction at 1 µM [5, 9]","fold induction at 8 µM [5, 9]"
"Cc1cc(C(=O)Nc2cccc(C3([C@H](F)c4nncn4C)COC3)c2)nc(C2CC2)n1 [Example 669a, (S)-2-cyclopropyl-N-(3-(3-(fluoro(4-methyl-4H-1,2,4-triazol-3-yl)methyl)oxetan-3-yl)phenyl)-6-methylpyrimidine-4-carboxamide]",≥ 7.00,2.51 to 5,5 to 7.5,0.151 to 0.2,1.01 to 1.3,1.01 to 1.3,> 1,> 7.00,,,,,,,,,,
"CCOc1cc(N2Cc3c(cc([C@@H](C)N4CC[C@H](F)C4)cc3C(F)(F)F)C2=O)cc(C2(Cc3nncn3C)COC2)c1 [Example 691a, 2-(3-ethoxy-5-(3-((4-methyl-4H-1,2,4-triazol-3-yl)methyl)-oxetan-3-yl)phenyl)-6-((R)-1-((S)-3-fluoropyrrolidin-1-yl)ethyl)-4-(trifluoromethyl)-isoindolin-1-one]",≥ 7.00,> 7.5,> 7.5,> 0.201,1.31 to 1.5,1.51 to 1.75,> 1,> 7.00,,,,,,,,,,
"CCN1CCN(Cc2cc3c(c(C(F)(F)F)c2)CN(c2cccc(C4(Cc5nncn5C)COC4)c2)C3=O)CC1 [Example 624, 6-((4-ethylpiperazin-1-yl)methyl)-2-(3-(3-((4-methyl-4H-1,2,4-triazol-3-yl)methyl)oxetan-3-yl)phenyl)-4-(trifluoromethyl)isoindolin-1-one]",≥ 7.00,5 to 7.5,> 7.5,> 0.201,1.31 to 1.5,1.31 to 1.5,> 1,> 7.00,,,,,,,,,,
"Cc1cc(C(=O)Nc2cccc(C3(Cc4nncn4C)CCC3)c2)nc(C2CC2)n1 [Example 694, 2-cyclopropyl-6-methyl-N-(3-(1-((4-methyl-4H-1,2,4-triazol-3-yl)methyl)cyclobutyl)phenyl)pyrimidine-4-carboxamide]",≥ 7.00,> 7.5,> 7.5,0.051 to 0.1,1.31 to 1.5,1.31 to 1.5,> 1,> 7.00,,,,,,,,,,
"C[C@H](Cc1nncn1C)c1cc(OC2COC2)nc(N2Cc3c(cccc3C(F)(F)F)C2=O)c1 [Compound 354, 2-{4-[(2R)-1-(4-methyl-4H-1,2,4-triazol-3-yl)propan-2-yl]-6-(oxetan-3-yloxy)pyridin-2-yl}-4-(trifluoromethyl)-2,3-dihydro-1H-isoindol-1-one]",≥ 6.52,,,,,,,6.52 to 7.00,1.01 to 2.5,1.01 to 2.5,5 to 7.5,0.101 to 0.15,> 0.201,1.01 to 1.3,1.01 to 1.3,1.31 to 1.5,0.601 to 0.8,> 1
"C[C@@H](c1cccc(N2Cc3c(cccc3C(F)(F)F)C2=O)c1)[C@@H](O)c1nncn1C (racemic) [Compound 292, cis-2-(3-(1-Hydroxy-1-(4-methyl-4H-1,2,4-triazol-3-yl)propan-2-yl)phenyl)-4-(trifluoromethyl)isoindolin-1-one]",≥ 5.00,,,,,,,5.52 to 6.00,2.51 to 5,1.01 to 2.5,1.01 to 2.5,< 0.05,< 0.05,1.01 to 1.3,< 1,1.01 to 1.3,< 0.6,< 0.6
"Cn1cnnc1CC1(c2cccc(N3Cc4c(cc(C5=CN6CCC5CC6)cc4C(F)(F)F)C3=O)c2)COC1 [Example 559, 6-(l-azabicyclo[2.2.2]oct-2-en-3-yl)-2-(3-(3-((4-methyl-4H-1,2,4-triazol-3-yl)methyl)oxetan-3-yl)phenyl)-4-(trifluoromethyl)isoindolin-1-one]",≥ 6.52,1.01 to 2.5,2.51 to 5,< 0.05,1.01 to 1.3,1.01 to 1.3,0.601 to 0.8,6.52 to 7.00,,,,,,,,,,
"CN1C[C@@H]2C[C@H]1CN2c1cc2c(c(C(F)(F)F)c1)CN(c1cccc([C@@](C)(F)C(F)(F)c3nncn3C)c1)C2=O [Example 563, 6-((1S,4S)-5-Methyl-2,5-diazabicyclo[2.2.1]heptan-2-yl)-2-(3-((R)-1,1,2-trifluoro-1-(4-methyl-4H-1,2,4-triazol-3-yl)propan-2-yl)phenyl)-4-(trifluoromethyl)-isoindolin-1-one]",≥ 7.00,1.01 to 2.5,2.51 to 5,0.051 to 0.1,1.01 to 1.3,1.31 to 1.5,0.801 to 1,> 7.00,,,,,,,,,,
"Cn1cnnc1[C@H]1CC[C@H]1c1cccc(N2Cc3c(cccc3C(F)(F)F)C2=O)c1 (racemic) [Compound 283, cis-2-(3-(2-(4-Methyl-4H-1,2,4-triazol-3-yl)cyclobutyl)phenyl)-4-(trifluoromethyl)isoindolin-1-one]",≥ 6.00,,,,,,,6.00 to 6.52,< 1,1.01 to 2.5,1.01 to 2.5,< 0.05,0.101 to 0.15,< 1,< 1,1.01 to 1.3,< 0.6,< 0.6
"COc1cccc2c1CN(Cc1cc3c(c(C(F)(F)F)c1)CN(c1cccc(C4(Cc5nncn5C)COC4)c1)C3=O)C2 [Example 702, 6-((4-methoxyisoindolin-2-yl)methyl)-2-(3-(3-((4-methyl-4H-1,2,4-triazol-3-yl)methyl)oxetan-3-yl)phenyl)-4-(trifluoromethyl)isoindolin-1-one]",≥ 7.00,5 to 7.5,> 7.5,> 0.201,1.51 to 1.75,1.51 to 1.75,> 1,> 7.00,,,,,,,,,,
"Cn1cnnc1CC1(c2cccc(NC(=O)c3ccnc(C(F)(F)F)n3)c2)COC1 [Compound 337, N-(3-(3-((4-methyl-4H-1,2,4-triazol-3-yl)methyl)oxetan-3-yl)phenyl)-2-(trifluoromethyl)pyrimidine-4-carboxamide]",≥ 6.52,,,,,,,6.52 to 7.00,1.01 to 2.5,2.51 to 5,2.51 to 5,0.051 to 0.1,0.151 to 0.2,1.01 to 1.3,1.01 to 1.3,1.01 to 1.3,0.601 to 0.8,> 1
"CC(c1cc(C(=O)Nc2cccc(C3(Cc4nncn4C)COC3)c2)nc(C2CC2)n1)N1CCCC1 (stereo not drawn) [Example 593, 2-Cyclopropyl-N-(3-(3-((4-methyl-4H-1,2,4-triazol-3-yl)methyl)oxetan-3-yl)phenyl)-6-(l-(pyrrolidin-1-yl)ethyl)pyrimidine-4-carboxamide]",≥ 7.00,> 7.5,> 7.5,> 0.201,1.31 to 1.5,1.31 to 1.5,> 1,> 7.00,,,,,,,,,,
